The text below walks through data of patent US10203334B2, “Methods and compositions related to nucleic acid binding assays” (Nubad, LLC, priority 2012, dated 2019).

The test system of data set [1] is RNA triplex poly(rA).2poly(rU). The data set can be described thus: Competition dialysis. Type of data set: binding. From the text:
(§1) Disclosed is the use of fluorescent aminosugar probes such as F-neo (42a) to probe a variety of nucleic acid targets. Competition dialysis was used as a nucleic acid screening technique to illustrate the binding of F-neo (42a) to different nucleic acid structures.
(§2) Competition dialysis studies using a fluorescein-neomycin conjugate (F-neo (42a)). […] Comparative binding of F-neo (42a) to 13 different nucleic acid structures was examined which included single strand nucleic acids [poly(dT), poly(A), poly(U)], duplexes [poly(dA).poly(dT), poly(rA).poly(dT), poly(rA).poly(rU), poly(dA).poly(rU), poly(dG).poly(dC), calf thymus], triplexes [poly(dA).2poly(dT), poly(rA).2poly(rU)], i-motif (polydC) and 16S A-site rRNA (SEQ ID No. 1). The amount of F-neo (42a) bound to each nucleic acid is shown as a bar graph in FIG. 13. Because all nucleic acids are dialyzed simultaneously in the same ligand solution, the amount of bound F-neo (42a) is directly proportional to its affinity for each nucleic acid. […] 200 μL of different nucleic acids (7.5 μM per monomeric unit of each polymer) was dialyzed for 72 h with 400 mL 100 nM ligand in 6 mM Na2HPO4, 2 mM NaH2PO4, 1 mM Na2EDTA, pH 7.0 and various Na+ concentrations as indicated.
(§3) F-neo (42a) prefers to bind to 16S A-site rRNA yielding a bound ligand concentration of 85 nM in 100 mM Na^+, 50 nM in 150 mM Na^+, and 15 nM in 200 mM Na^+ is shown in FIG. 15.

The test system of data set [2] is DNA duplex poly(dA).poly(dT), hybrid duplex poly(rA).poly(dT), calf thymus DNA, i-motif DNA, and all single-stranded nucleic acids. Briefly: Competition dialysis. Type of data set: binding.
Excerpt: as §1, §2, §3

In data set [3] the test system is hybrid duplex poly(dA).poly(rU). Briefly: Competition dialysis. Type of data set: binding. To be noted: under these salt conditions (100-200 mM Na^+).
Excerpt: as §1, §2, §3

Data set [4] has as its system RNA duplex poly(rA).poly(rU). Briefly: Competition dialysis. Format: binding. Conditions: under these salt conditions (100-200 mM Na^+).
Excerpt: as §1, §2, §3

In data set [5] the test system is E. coli ribosomal A-site (SEQ ID No. 1). Briefly: Quenching of F-neo by ribosomal A-site mimics, 96-well. Format: binding. Conditions: 0.1 μM RNA to 0.1 μM F-neo (42a); em 535 nm, ex 485 nm; ten wells averaged. As for the experimental part: (§4) Disclosed is an HTS showing the difference in the binding affinity of fluorescene-neomycin (F-neo (42a)) to various synthetic RNA sequence 27 bases long designed to mimic the ribosomal A-site using a 96 well plate format and a fluorescent plate reader. Differences in binding are determined by the differential quenching of F-neo (42a) upon binding to the RNA.
(§5) Following the SOP's established for F-neo (42a) binding to E. coli A-site, each sequence was added at 0.1 μM RNA to 0.1 μM F-neo (42a) using 100 reads/well using a Tecan Genios Pro plate reader in a 96 well Greiner black plate. The emission was measured at wavelength 535 nm, using an excitation wavelength of 485 nm. All experiments were performed in 10 mM hepes (7.0), 50 mM NaCl, and 0.4 mM EDTA.

Data set [6] has as its system mitochondria ribosomal A-site (SEQ ID NO. 3). The data set is described as above. Conditions: 0.1 μM RNA to 0.1 μM F-neo (42a); em 535 nm, ex 485 nm; ten wells averaged. Type of data set: binding. As for the experimental part: as §4, §5
The subject of data set [7] is human ribosomal A-site (SEQ ID NO. 2). Described as above. To be noted: 0.1 μM RNA to 0.1 μM F-neo (42a); em 535 nm, ex 485 nm; ten wells averaged. Type of data set: binding. Here is the method:
as §4, §5

Data set [8] concerns A-site RNA oligonucleotide (SEQ ID No. 1). Format: physicochemical, E. coli. Here is the method: The effect of A-site rRNA oligonucleotide (SEQ ID No. 1) on the absorbance spectra of fluorescein-neomycin at pH 7.1 was recorded in FIG. 7. The absorbance spectra of 3.0 mM fluorescein-neomycin in 20 mM MOPSO, 0.4 mM EDTA, 50 mM NaCl at pH 7.1 with the addition of 0 mM (112), 1.1 mM (114), 2.2 mM (116) or 3.3 mM (118) of A-site oligonucleotide (SEQ ID NO. 1), respectively is shown in FIG. 7A. Absorbance at 490 nm of fluorescein-neomycin:A-site complex as function of pH is show in FIG. 7B, with 3.0 mM fluorescein-neomycin complexed with 3.3 mM A-site oligonucleotide (SEQ ID No. 1) in 20 mM MOPSO, 0.4 mM EDTA, 50 mM NaCl at the indicated pH values.
With increasing pH, fluorescein-neomycin undergoes a transition between mono-anion and di-anion species. Fluorescein-neomycin concentration was 10 μM in 100 mM NaCl, 10 mM SC, 0.5 mM EDTA. As indicated by its absorbance spectra in FIG. 8A, the F-neo transitions from a mono-anion to a di-anion with increasing pH. FIG. 8B compares the absorbance spectra between the mono-anion and di-anion species of fluorescein neomycin. […] The absorbance peak of about 490 nm in FIGS. 8A and 8B is consistent with the phenolate species of fluorescein. The pKa for the equilibrium of the phenol and phenolate forms of F-neo (42a) was measured by evaluating the absorbance spectrum as a function of pH and shown to be 6.84. […] When monitoring the absorption spectrum in the presence of the A-site RNA (SEQ ID No. 1), a reduction in A490 consistent with the change in pKa was observed. This A490 reduction is consistent with a shift in equilibrium towards the protonated non-fluorescent form of fluorescein-neomycin upon binding to A-site. […] This shift in pKa causes a change in the fluorescence intensity of F-neo (42a).
The following equilibrium can be used to explain the probe function: FHNeo+Base=F(−)Neo+BH^+ Eq. (2) where FHNeo represents the protonated form of F-neo (42a). Upon binding to A-site RNA, F(−)Neo is destabilized by the negative potential of the RNA backbone, shifting the equilibrium towards FHNeo. Thus the binding of F-neo (42a) to RNA raises the pKa, making F-neo (42a) a weaker acid.
The local electrostatic potential (Ψ) in the major groove is given by the following Equation 3. Ψ=−[R·T·ln 10/(NA·e)]ΔpKa Eq. (3) Where ΔpKa is the difference between the free Fluorescein-neomycin and the Fluorescein-neomycin in the presence of the electrostatic environment, R is the universal gas constant, T is the absolute temperature in kelvin, NA is the Avogadro constant, and e is the elementary charge. R=8.312 J mol−1K−1, T=298.2K, NA=6.023×10^23 and e=1.602×10^−19; Ψ is expressed in mV. […] Based on this Δpka of 0.86, the electrostatic potential of the microenvironment for the fluorescein moiety in the complex is determined to be −50.9 mV.

Regarding `NCC1O[C@H](OC2C(O)C(OC3C(O)[C@H](N)CC(N)[C@H]3O[C@H]3OC(CN)[C@@H](O)C(O)C3N)O[C@@H]2CSCCNC(=O)CCSCC(=O)Nc2ccc(-c3c4ccc(=O)cc-4oc4cc(O)ccc34)c(C(=O)O)c2)C(N)C(O)[C@@H]1O` (stereo partly shown) [F-neo (42a), Neomycin-Fluorescein Conjugate], the “bound F-neo (42a)” value is 60 nM in data set [1] (100 mM Na^+), 20 nM in data set [1] (150 mM Na^+) and 5 nM in data set [1] (200 mM Na^+). Also, in data set [2], the “binding in competition dialysis” value is “moderate to very weak binding”. Besides, the bound drug in data set [3] and in data set [4] was 10 to 20 nM in each case. Also, the “fluorescence of F-neo with RNA” value in data set [5] is reported as 7963 (±221); in data set [6], 11987 (±445); in data set [7], 9503 (±208). In addition, in data set [8] (calculated from Δpka (Eq. 3)), the “electrostatic potential of the microenvironment for the fluorescein moiety in the complex” value was −50.9 mV. Further, the Δpka in data set [8] (complex versus free probe) is listed as 0.86. The “apparent pKa of F-neo/A-site oligonucleotide complex” value in data set [8] (pH-dependent absorbance spectra) amounted to 7.7. For the same compound, the “upward shift of the pKa upon binding of A-site” value in data set [8] (titration curve of A490) was “approximately one”.
